The text below walks through data of US9914754B2, “Conjugates of neurotensin or neurotensin analogs and uses thereof” (Angiochem Inc., priority 2008, dated 2018).

Where two headings read alike, the source gives them in different places. Peptide text beside a SMILES is read from it. Where only a bound is given, the exact number is not on record here.

One series addresses NTSR1 (Homo sapiens, UniProt P30989). Format: binding.
For series [1] the following is noted: in situ brain perfusion assay; cited from earlier work.
The mark [2] stands for this setting: competition with [3H]-NT on HT29 cells expressing NTSR1.

NTSR1, sequence (P30989 whole entry, the tested form may be a part): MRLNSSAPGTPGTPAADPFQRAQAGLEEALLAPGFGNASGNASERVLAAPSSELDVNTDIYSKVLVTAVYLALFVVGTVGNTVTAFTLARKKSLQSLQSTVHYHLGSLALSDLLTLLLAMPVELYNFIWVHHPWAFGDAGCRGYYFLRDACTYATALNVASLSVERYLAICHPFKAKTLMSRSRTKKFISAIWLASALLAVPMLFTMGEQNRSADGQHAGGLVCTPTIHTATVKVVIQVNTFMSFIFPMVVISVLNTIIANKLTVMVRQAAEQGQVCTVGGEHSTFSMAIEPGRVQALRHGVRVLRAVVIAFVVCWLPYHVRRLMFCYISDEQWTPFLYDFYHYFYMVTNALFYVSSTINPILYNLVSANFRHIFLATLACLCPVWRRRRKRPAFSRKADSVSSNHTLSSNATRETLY

Take `CC[C@H](C)[C@H](NC(=O)[C@@H](Cc1ccc(O)cc1)NC(=O)[C@@H]1CCCN1C(=O)[C@H](CCCNC(=N)N)NC(=O)[C@H](CCCNC(=N)N)NC(=O)C(CCCCNC(=O)CCCCCN1C(=O)CC(SC[C@H](NC(=O)[C@H](Cc2ccc(O)cc2)NC(=O)[C@H](CCC(=O)O)NC(=O)[C@H](CCC(=O)O)NC(=O)[C@@H](NC(=O)[C@H](CCCCN)NC(=O)[C@H](Cc2ccccc2)NC(=O)[C@H](CC(N)=O)NC(=O)[C@H](CC(N)=O)NC(=O)[C@H](CCCNC(=N)N)NC(=O)[C@H](CCCCN)NC(=O)CNC(=O)[C@H](CCCNC(=N)N)NC(=O)[C@H](CO)NC(=O)CNC(=O)CNC(=O)[C@H](Cc2ccc(O)cc2)NC(=O)[C@H](Cc2ccccc2)NC(=O)[C@H](Cc2ccccc2)NC(=O)[C@@H](N)[C@@H](C)O)[C@@H](C)O)C(N)=O)C1=O)NC(C)=O)C(=O)N[C@@H](CC(C)C)C(=O)O` (stereo partly drawn) [Ac-Lys-[D-Tyr^11]NT(8-13)-An2]: the IC50 was 5390 nM on NTSR1 (HT29 cells, [3H]-NT, values in the text (FIGS. 21, 22)) and above 100 nM on NTSR1 (setting [2]).
On to `CC[C@H](C)[C@H](NC(=O)[C@H](Cc1ccc(O)cc1)NC(=O)[C@@H]1CCCN1C(=O)[C@H](CCCNC(=N)N)NC(=O)[C@H](CCCNC(=N)N)NC(=O)[C@H](CCCCN)NC(C)=O)C(=O)N[C@@H](CC(C)C)C(=O)O` [AcLys-NT(8-13)] (Ac-KRRPYIL-OH), for which, at NTSR1 (setting [2]), the IC50 stood at 1 nM.
With “T F F Y G G S R G K R N N F R T E E Y (TFFYGGSRGKRNNFRTEEY) [Angiopep-6]”, in series [1], the “transport across the BBB relative to Angiopep-1 (250 nM)” value is reported as 38.5%.

The term IC50 denotes the concentration needed to halve the response being measured. A high value points to weaker potency.
